Results: publication PMC10112521, “High-throughput AR dimerization assay identifies androgen disrupting chemicals and metabolites” (Frontiers in Toxicology, 2023)
Structures can show the parent of a compound that is named as a salt. Where two headings read alike, the source gives them in different places.

What was measured:
human AR [1] = target: T1, human AR (Homo sapiens, UniProt P10275); test: AR2 assay, agonist mode: ligand-dependent AR homodimerization (NanoBiT luciferase complementation) in stable HepG2-AR2 cells; format: cell-based;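 on hill tp: Log2 fold change of luminescence over DMSO vehicle wells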;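 on max med: Log2 fold change of luminescence over DMSO vehicle wells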
T1 sequence (P10275 1-920) 1: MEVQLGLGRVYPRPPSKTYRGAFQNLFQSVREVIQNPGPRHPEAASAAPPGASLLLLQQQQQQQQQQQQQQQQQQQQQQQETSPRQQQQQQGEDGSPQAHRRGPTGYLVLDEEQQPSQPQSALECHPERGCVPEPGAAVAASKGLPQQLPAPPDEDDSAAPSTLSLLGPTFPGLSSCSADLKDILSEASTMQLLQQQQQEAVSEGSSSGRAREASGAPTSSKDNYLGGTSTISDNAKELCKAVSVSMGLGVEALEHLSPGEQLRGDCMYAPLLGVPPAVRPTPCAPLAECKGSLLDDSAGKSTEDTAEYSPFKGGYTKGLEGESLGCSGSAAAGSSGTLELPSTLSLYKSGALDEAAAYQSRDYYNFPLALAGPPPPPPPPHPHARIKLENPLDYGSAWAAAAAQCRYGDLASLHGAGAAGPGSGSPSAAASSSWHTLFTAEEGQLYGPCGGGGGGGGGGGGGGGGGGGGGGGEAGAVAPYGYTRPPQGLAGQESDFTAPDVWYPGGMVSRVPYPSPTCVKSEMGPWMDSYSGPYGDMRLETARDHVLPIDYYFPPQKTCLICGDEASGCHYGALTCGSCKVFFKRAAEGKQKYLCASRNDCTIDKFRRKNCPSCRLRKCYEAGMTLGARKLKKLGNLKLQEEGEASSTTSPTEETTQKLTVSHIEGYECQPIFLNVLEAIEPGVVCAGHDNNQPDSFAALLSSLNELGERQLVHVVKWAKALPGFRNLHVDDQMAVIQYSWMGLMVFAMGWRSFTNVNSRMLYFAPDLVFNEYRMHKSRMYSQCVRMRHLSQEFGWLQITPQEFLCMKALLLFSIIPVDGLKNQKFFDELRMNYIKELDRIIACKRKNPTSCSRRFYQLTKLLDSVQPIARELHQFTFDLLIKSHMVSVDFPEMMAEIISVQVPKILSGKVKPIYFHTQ
T1 sequence (P10275 1-920) 2: T1 sequence (P10275 1-920) 1

human AR [2] = target: T1, human AR; test: AR2 assay, antagonist mode: disruption of R1881 (10 nM)-induced AR homodimerization in HepG2-AR2 cells; format: cell-based
human AR [3] = target: T1, human AR; test: cell-based; parameters: species or system AR2 cells (HepG2-AR2); NanoLuc complementation AR homodimerization, antagonist mode, loss of agonist-induced luminescence, AC50 by Hill fit; details: hill_ga, antagonist mode, 10 nM agonist stimulus, 18 h, no CYP expressed
AR2 cells (HepG2-AR2) = test: Alamar Blue (resazurin) post hoc cell viability / cytotoxicity assay in AR2 cells; details: spid Viability, sheet antagonist_fits; for hill_tp (Hill model top): 0 where win_model is Constant
Method: For antagonist mode and cytotoxicity data, well-level normalized response (resp) was calculated as: resp=100 * RLU−bval/pval−bval where pval is the median RLU value of the MEC positive control wells (minimum four wells).

[4] = system: full-length human AR and the receptor interacting domain (RID) of SRC1; parameters: method as in U.S. EPA, 2002b; details: cited from earlier work
AR = system: AR; parameters: method as in Kleinstreuer et al., 2017; details: 2017, cited from earlier work; for Agonist reference: AR agonist reference class ref Kleinstreuer et al.; for Antagonist reference: AR antagonist reference class ref Kleinstreuer et al.
[5] = sheet agonist_fits, Hill model top (efficacy), 0 given where win_model is Constant
[6] = sheet agonist_fits, maximum median response
[7] = sheet agonist_fits, winning concentration-response model (Constant, Hill, Gain-Loss)
[8] = spid AR_antagonist, sheet antagonist_fits
[9] = spid AR_antagonist, sheet antagonist_fits, 0 where win_model is Constant
[10] = activity call, 8 h, single protocol detects agonists and antagonists, invitroDBv3.4 ref U.S. EPA, 2002b
[11] = activity call, 16 h, single protocol detects agonists and antagonists, invitroDBv3.4 ref U.S. EPA, 2002b

| SMILES | hill_tp (human AR [1]; [5]) | max_med (human AR [1]; [6]) | win_model (human AR [1]; [7]) | max_med (maximum median response) (human AR [2]; [8]) | win_model (winning concentration-response model) (human AR [2]; [8]) | hill_gw (Hill model slope) (human AR [2]; [9]) | hill_tp (Hill model top) (human AR [2]; [9]) | max_med (maximum median response) (AR2 cells (HepG2-AR2)) | hill_tp (Hill model top) (AR2 cells (HepG2-AR2)) | Agonist reference (AR) | Antagonist reference (AR) | Agonist reference (AR; Supplementary Table S1) | Antagonist reference (AR; Supplementary Table S1) | other results |
| --- | --- | --- | --- | --- | --- | --- | --- | --- | --- | --- | --- | --- | --- | --- |
| O=[N+]([O-])c1ccc(O)c([N+](=O)[O-])c1 [2,4-Dinitrophenol] | 0 | 0.06149 | Constant | 41.2653 | Hill | 1.229 | 60.4053 | 17.6561 | 19.403 |  |  |  |  | AC50 (human AR [3]; spid=Bgal): 61.4 µM; AC50 (human AR [3]; spid=No_RNA): 35.8 µM |
| C[C@]12CCC(=O)C=C1CC[C@@H]1[C@@H]2CC[C@]2(C)C(=O)CC[C@@H]12 [4-Androstene-3,17-dione] |  |  |  |  |  |  |  | 19.1138 | 19.333 | Moderate | Inactive | Moderate |  | OT 8 hr [4, 10]: 1; OT 16 hr [4, 11]: 1 |
| C[C@]12C=CC3=C4CCC(=O)C=C4CC[C@H]3[C@@H]1CC[C@@H]2O [17beta-Trenbolone] |  |  |  |  |  |  |  | 21.7453 | 17.3642 | Strong |  | Strong |  | AR2 agonist (human AR [1]): 1; activity call in agonist mode (human AR [1]): tested active; hill_gw (human AR [1]): 0.7579; hill_tp (human AR [1]): 6.165; max_med (human AR [1]): 6.198; win_model (human AR [1]): Hill; hill_gw (Hill model slope) (human AR [2]): 6.214; hill_tp (Hill model top) (human AR [2]): 20.2687; max_med (maximum median response) (human AR [2]): 20.7317; win_model (winning concentration-response model) (human AR [2]): Gain-Loss; OT 8 hr [4]: 1; OT 16 hr [4]: 1 |
| CC/C(=C(\c1ccc(O)cc1)c1ccc(OCCN(C)C)cc1)c1ccccc1 [Afimoxifene (4-Hydroxytamoxifen)] | 0 | 0.04316 | Constant | 104.395 | Hill | 3.209 | 105.037 | 99.7378 | 99.9149 |  |  |  |  | AC50 (human AR [3]; spid=Bgal): 7.28 µM; AC50 (human AR [3]; spid=No_RNA): 5.39 µM |
| CCCCOC(=O)c1ccccc1C(=O)OCc1ccccc1 [Butylbenzylphthalate] |  |  |  |  |  |  |  | 15.4413 | 12.3573 |  |  | Inactive |  |  |
| CCN(CC)CCOc1ccc(/C(=C(/Cl)c2ccccc2)c2ccccc2)cc1 [Enclomiphene hydrochloride] | 0 | 0.05981 | Constant | 104.097 | Hill | 2.002 | 106.442 | 99.6641 | 101.238 |  |  |  |  |  |
| COP(=S)(OC)Oc1ccc([N+](=O)[O-])c(C)c1 [Fenitrothion] |  |  |  |  |  |  |  | 18.684 | 19.2014 |  | Strong |  | Strong |  |
| CC(C)(C)NC(=O)[C@H]1CC[C@H]2[C@@H]3CC[C@H]4NC(=O)C=C[C@]4(C)[C@H]3CC[C@]12C [Finasteride] |  |  |  |  |  |  |  | 14.3947 | 0 | Inactive |  |  |  |  |
| CC(C)C(=O)Nc1ccc([N+](=O)[O-])c(C(F)(F)F)c1 [Flutamide] |  |  |  |  |  |  |  | 35.756 | 43.7281 | Inactive | Moderate |  | Moderate |  |
| CC(C)(O)C(=O)Nc1ccc([N+](=O)[O-])c(C(F)(F)F)c1 [Hydroxyflutamide] | 5.723 | 5.832 | Hill | 26.302 | Hill | 8 | 19.7734 | 16.5535 | 15.0961 |  | Strong |  | Strong | activity call in agonist mode (human AR [1]; 128-chemical evaluation, 18 h, active = maximal median response >5*bmad): tested active; hill_gw (human AR [1]; sheet agonist_fits, Hill model gain slope (Hill coefficient), 0 given where win_model is Constant): 0.8082; activity call in antagonist mode (human AR [2]; 128-chemical evaluation, 18 h, active = maximal median response >3*bmad and AC50 at least 0.5 log units below cytotoxicity AC50): tested inactive; AR2 antagonist (human AR [2]; activity call, antagonist mode, 18 h): 0; Emax (human AR [2]; read-out: antagonist response / maximum efficacy (% inhibition)): > 90%; OT 8 hr [4, 10]: 1; OT 16 hr [4, 11]: 1 |
